Test results reported in patent US6677324B1, “Combination preparation of estrogen and anti-estrogen” (Schering Aktiengesellschaft, priority 1998, dated 2004).

Key:
uterus and bone = assay: Selective bone action test: uterus weight, uterine epithelium depth and trabecular bone density of proximal tibia in ovarectomized rats; format: in vivo, rat; conditions: combination with 17β-oestradiol, ovarectomized rats 3 months old, treated 28 days, FIGS. 1-3
Experimental: (§1) In the FIG. 1 means: control (only solvent), 2: 0.3 μg of oestradiol, 3: 75 μg of test substance, 4: 75 μg of test substance+0.03 μg of oestradiol, 5: 75 μg of test substance+0.1 μg of oestradiol, 6: 75 μg of test substance+0.3 μg of oestradiol, 7: 75 μg of test substance+1.0 μg of oestradiol, 8: 75 μg of test substance+3.0 μg of oestradiol.
as §1, with “μg of oestradibl, 3: 75” for “μg of oestradiol, 3: 75”
The doses of the oestrogen and antioestrogen to be used for the selective bone action test must be established to begin with in preliminary investigations.
The dose of the antioestrogen to be used is determined by an antiuterus growth test in the oestradiol-substituted, ovarectomized rat. […]
After 28 days, the animals are killed and the uterus weight, as well as the trabecular bone density in the proximal tibia, is measured. The uterus weight is determined by weighing the uterus moist weight immediately after organ removal. The trabecular bone density is determined ex vivo by bone density measurements in the secondary spongiosa of the proximal tibia using a QCT (Stratec XCT 960A).

central nervous system = conditions: Biegon et al. 1996; cited from earlier work

Row | Compound | selective action of the combination on bone versus uterus (uterus and bone) | action in the central nervous system (central nervous system)
1 | CN(CCCCC[C@@H]1Cc2cc(O)ccc2[C@@H]2[C@@H]1[C@@H]1CC[C@H](O)[C@@]1(C)C[C@@H]2F)CCCSCCCC(F)(F)C(F)(F)F [Example 1, 11β-fluoro-7α-{5-[N-methyl-N-3-(4,4,5,5,5-pentafluoropentylthio)propylamino]pentyl}-oestra-1,3,5(10)-triene-3,17β-diol] | selectively active | 
2 | CC/C(=C(\c1ccccc1)c1ccc(OCCN(C)C)cc1)c1ccccc1 [tamoxifen] |  | acts there as an oestroaenic antagonist
